Measurements taken from ChEMBL document CHEMBL3745611 (J Med Chem, 2015).
pIC50: −log10 of the molar value. ≈ marks a conversion by molar mass, not a printed value. Calls of active or inactive are those of the source. The calls are words filed in the database; no cut-off is given here.

What was measured:
[1] = biological target: T1, Transitional endoplasmic reticulum ATPase (Homo sapiens, UniProt P55072)
Description: Inhibition of human p97 ATPase incubated for 15 mins by ADP Glo luminescence assay

[2] = system: A549; assay: cells; settings: Homo sapiens, A549, 72 h
Description: Cytotoxicity against human A549 cells assessed as cell viability after 72 hrs by Celltiter-Glo assay

[3] = biological target: T1, Transitional endoplasmic reticulum ATPase; assay: Inhibition of p97 ATPase in human A549 cells assessed as reduction in p62 protein incubated for 6 hrs by immunofluorescence assay; format: cell-based; settings: for pIC50: read-out: IC50; for IC50: a549
[4] = system: HCT-116; assay: Antitumor activity against human HCT116 cells xenografted in nude mouse assessed as tumor growth inhibition at 300 mg/kg, po qd; format: functional, organism-based
[5] = Half life in mouse liver microsomes; format: ADME; settings: for half-life: liver microsomes
[6] = Aqueous solubility of compound; format: physicochemical; settings: aqueous medium
[7] = biological target: T1, Transitional endoplasmic reticulum ATPase; remark: listed apart in the source
Description: Inhibition of p97 ATPase in human A549 cells assessed as accumulation of K48 poly-ubiquitinated proteins incubated for 6 hrs by immunofluorescence assay

[8] = biological target: T1, Transitional endoplasmic reticulum ATPase; remark: listed apart in the source
Description: Inhibition of p97 ATPase in human A549 cells assessed as accumulation of CHOP poly-ubiquitinated proteins incubated for 6 hrs by immunofluorescence assay

[9] = biological target: T1, Transitional endoplasmic reticulum ATPase; assay: Inhibition of p97 ATPase (unknown origin)
[10] = system: A549; assay: Antitumor activity against human A549 cells xenografted in […] SCID beige mouse assessed as tumor growth inhibition at 1 mg/kg, iv administered twice per week; format: functional, organism-based
[11] = system: AMO1; settings: Homo sapiens
Description: Antitumor activity against human AMO1 cells xenografted in nude SCID beige mouse assessed as tumor growth inhibition at 1 mg/kg, iv administered twice per week

[12] = system: HCT-116; assay: Antitumor activity against human HCT116 cells xenografted in nude mouse assessed as tumor growth inhibition at 50 mg/kg, po q2d for 12 days; format: functional, organism-based
[13] = system: Plasma; assay: Drug uptake in plasma of mouse xenografted with human A549 cells at 150 mg/kg, po measured at 2 to 24 hrs; format: ADME, organism-based; settings: in vivo
[14] = system: A549; assay: Drug uptake in human A549 cells xenografted in mouse at 150 mg/kg, po measured at 2 to 24 hrs; format: ADME, organism-based; settings: in vivo
[15] = Mean residence time in mouse at 25 mg/kg, po; settings: in vivo
[16] = Half life in mouse hepatocytes
[17] = Apparent permeability from apical to basolateral side in human Caco2 cells; settings: Caco-2
[18] = Mean residence time in mouse at 3 mg/kg, iv; settings: in vivo
[19] = in vivo; settings: mouse, po, 25 mg/kg
Description: Tmax in mouse at 25 mg/kg, po

[20] = in vivo; settings: mouse, po, 25 mg/kg; remark: listed apart in the source
Description: Cmax in mouse at 25 mg/kg, po

[21] = Metabolic stability of compound in mouse liver microsomes; format: ADME

T1 sequence (P55072 whole entry): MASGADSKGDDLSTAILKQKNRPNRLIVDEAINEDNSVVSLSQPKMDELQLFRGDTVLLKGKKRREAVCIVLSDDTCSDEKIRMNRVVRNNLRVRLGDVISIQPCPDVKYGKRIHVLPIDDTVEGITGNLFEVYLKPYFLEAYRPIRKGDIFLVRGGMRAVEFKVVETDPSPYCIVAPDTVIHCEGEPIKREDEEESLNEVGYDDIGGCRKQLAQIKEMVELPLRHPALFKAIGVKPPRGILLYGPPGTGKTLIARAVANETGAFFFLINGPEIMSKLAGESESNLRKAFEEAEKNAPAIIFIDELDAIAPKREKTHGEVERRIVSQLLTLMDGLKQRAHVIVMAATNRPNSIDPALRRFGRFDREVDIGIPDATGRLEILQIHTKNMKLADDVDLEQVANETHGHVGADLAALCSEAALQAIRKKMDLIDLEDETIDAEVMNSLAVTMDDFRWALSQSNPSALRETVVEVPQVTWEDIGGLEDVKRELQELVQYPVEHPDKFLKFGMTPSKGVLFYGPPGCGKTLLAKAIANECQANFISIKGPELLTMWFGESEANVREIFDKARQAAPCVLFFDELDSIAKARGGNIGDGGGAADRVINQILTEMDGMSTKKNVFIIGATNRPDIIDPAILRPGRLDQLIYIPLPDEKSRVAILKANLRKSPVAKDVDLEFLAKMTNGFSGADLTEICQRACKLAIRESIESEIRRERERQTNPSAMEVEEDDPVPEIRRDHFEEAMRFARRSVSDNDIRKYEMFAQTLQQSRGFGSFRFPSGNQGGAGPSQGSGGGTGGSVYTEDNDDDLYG

Compound | pIC50 [1] | pIC50 [2] | other results
NCc1cc2ccccc2n1-c1nc2c(c(NCc3ccccc3)n1)CCCC2 | 6.82 | 5.33 | –
Cc1ccc2cc(C)n(-c3nc4c(c(NCc5ccccc5)n3)CNCC4)c2c1 | 5.41 | – | –
COc1cccc2c1cc(C)n2-c1nc2c(c(NCc3ccccc3)n1)CNCC2 | 5.68 | – | –
COc1nc2ccccc2n1-c1nc2c(c(NCc3ccccc3)n1)CNCC2 | 5.50 | – | –
COc1nc2ccccc2n1-c1nc2c(c(NCc3ccccc3)n1)CCCC2 | 7.12 | 5.13 | pIC50 [3]: 5.32; TGI [4]: Active; half-life [5]: 11 min; solubility [6]: < 1 µg/mL; pIC50 [7]: 5.37; pIC50 [8]: 5.03
Cc1cc2c(Cl)cccc2n1-c1nc2c(c(NCc3ccccc3)n1)CNCC2 | 6.20 | 5.14 | –
COCc1cc2ccccc2n1-c1nc2c(c(NCc3ccccc3)n1)CCCC2 | 6.10 | < 4.40 | –
Cc1cc2c(C(=O)O)cccc2n1-c1nc2c(c(NCc3ccccc3)n1)CNCC2 | 7.02 | < 4.40 | –
COc1cccc2c(NCc3ccccc3)nc(-n3c(N)nc4c3CCCC4)nc12 | < 5.30 | – | –
Cc1cc2c(C(=O)NC(C)C)cccc2n1-c1nc2c(c(NCc3ccccc3)n1)CNCC2 | 5.32 | – | –
Cc1cc2c(-c3nnn[nH]3)cccc2n1-c1nc2c(c(NCc3ccccc3)n1)CNCC2 | 7.82 | < 4.40 | –
Cc1ccc2c(c1)cc(C)n2-c1nc2c(c(NCc3ccccc3)n1)CNCC2 | < 5.30 | – | –
Cc1cc2c(C(F)(F)F)cccc2n1-c1nc2c(c(NCc3ccccc3)n1)CNCC2 | 5.41 | – | –
Nc1nc2ccccc2n1-c1nc2c(c(NCc3ccccc3)n1)CCCC2 | 6.37 | – | –
O=C(CCl)Nc1cccc(NC2=NS(=O)(=O)c3ccccc32)c1 | – | – | pIC50 [9]: 6.43
CC(C)C[C@H](NC(=O)[C@H](Cc1ccccc1)NC(=O)c1cnccn1)B(O)O | – | – | TGI [10]: inactive; TGI [11]: Active
Cc1cc2c(C(N)=O)cccc2n1-c1nc2c(c(NCc3ccccc3)n1)CCCC2 | 8.22 | 6.23 | pIC50 [3]: 6.60; TGI [12]: Active; Drug uptake [13]: Active; Drug uptake [14]: Active; half-life [5]: 44 min; solubility [6]: 4 µg/mL (≈ 9.72 µM); pIC50 [7]: 6.30; pIC50 [8]: 6.24
Cc1[nH]c2ccccc2c1-c1nc2c(c(NCc3ccccc3)n1)CCCC2 | 6.83 | 4.80 | –
CNC(=O)c1cccc2c1cc(C)n2-c1nc2c(c(NCc3ccccc3)n1)CNCC2 | 6.67 | 5.22 | –
Cc1cc2c(C(N)=O)cccc2n1-c1nc2c(c(NCc3ccccc3)n1)COCC2 [CB-5083] | – | – | MRT [15]: 183 min; Drug uptake [13]: Active; Drug uptake [14]: Active; half-life [16]: 172 min; Papp A→B [17]: 52.4 ×10⁻⁶ cm/s; solubility [6]: 32 µg/mL (≈ 77.4 µM); MRT [18]: 70.2 min; Tmax [19]: 30 min; Cmax [20]: 7.95 µM
COc1nc2ccccc2n1-c1nc(NCc2ccccc2)c2ncsc2n1 | 6.74 | – | –
Cc1cc2ccccc2n1-c1nc2c(c(NCc3ccccc3)n1)CCCC2 | 7.33 | 5.19 | –
Cc1cc2cc(C#N)ccc2n1-c1nc2c(c(NCc3ccccc3)n1)CNCC2 | < 5.30 | – | –

Compound | pIC50 [1] | pIC50 [2] | other results
COc1cc2ccccc2n1-c1nc2c(c(NCc3ccccc3)n1)CCCC2 | 7.37 | 5.15 | –
Cc1cc2c(C#N)cccc2n1-c1nc2c(c(NCc3ccccc3)n1)CNCC2 | 6.84 | 5.05 | –
COc1cccc2c(NCc3ccccc3)nc(-n3c(N)nc(C)c3C)nc12 | < 5.30 | – | –
Cc1cc2c(C(N)=O)cccc2n1-c1nc2c(c(NCc3ccccc3)n1)CNCC2 | 7.40 | 5.63 | pIC50 [3]: 5.70; half-life [5]: 105 min; solubility [6]: 1260 µg/mL (≈ 3040 µM); pIC50 [7]: 5.75; pIC50 [8]: 5.54
Cc1cc2c(C(N)=O)cccc2n1-c1nc2c(c(NCc3ccccc3)n1)CCOC2 | – | 5.97 | –
Cc1nc2ccccn2c1-c1nc2c(c(NCc3ccccc3)n1)CCCC2 | 6.61 | 4.74 | –
Nc1nc2ccccc2n1-c1nc2c(c(NCc3ccccc3)n1)CNCC2 | < 5.30 | – | –
Cc1nn2ccccc2c1-c1nc2c(c(NCc3ccccc3)n1)CCCC2 | 6.44 | 4.60 | –
Nc1nc2ccccc2n1-c1nc(NCc2ccccc2)c2ccsc2n1 | 5.52 | – | –
Cc1cc2c(C(=O)N(C)C)cccc2n1-c1nc2c(c(NCc3ccccc3)n1)CNCC2 | < 5.30 | – | –
Cc1cccc2c1cc(C)n2-c1nc2c(c(NCc3ccccc3)n1)CNCC2 | 6.19 | 5.11 | –
Cc1cc2ccc(C#N)cc2n1-c1nc2c(c(NCc3ccccc3)n1)CNCC2 | 5.05 | – | –
Cc1nc2ccccc2n1-c1nc2c(c(NCc3ccccc3)n1)CCCC2 | 7.01 | – | –
Cc1cc2c(F)cccc2n1-c1nc2c(c(NCc3ccccc3)n1)CNCC2 | 6.47 | 5.20 | –
COc1cccc2c(NCc3ccccc3)nc(Nc3nc4ccccc4[nH]3)nc12 | < 5.30 | – | –
FC(F)(F)c1cc2ccccc2n1-c1nc2c(c(NCc3ccccc3)n1)CCCC2 | 6.19 | < 4.40 | –
Cc1cc2c(C(N)=O)cccc2n1-c1nc2c(c(NCc3ccccc3)n1)CCNC2 | 7.15 | 5.61 | –
Cc1nc2ccccc2n1-c1nc2c(c(NCc3ccccc3)n1)CNCC2 | < 5.30 | – | –
CCc1cc2ccccc2n1-c1nc2c(c(NCc3ccccc3)n1)CCCC2 | 6.35 | – | –
COc1ccc2c(c1)cc(C)n2-c1nc2c(c(NCc3ccccc3)n1)CNCC2 | < 5.30 | – | –
COc1ccc2cc(C)n(-c3nc4c(c(NCc5ccccc5)n3)CNCC4)c2c1 | < 5.30 | – | –
Cc1cc2ccccc2n1-c1nc2c(c(NCc3ccccc3)n1)CNCC2 | 6.72 | 5.06 | IC50 [3]: Not Active; t1/2 ([5]; microsomes): Stable; solubility [6]: 750 µg/mL (≈ 2030 µM); Stability [21]: Stable; pIC50 [7]: 4.81; pIC50 [8]: 5.04
OCc1cc2ccccc2n1-c1nc2c(c(NCc3ccccc3)n1)CCCC2 | 7.17 | 5.08 | –

Continued, in another order:

pIC50 [1] | pIC50 [2] | Compound | other results
< 5.30 | – | COc1cccc2c(NCc3ccccc3)nc(-n3c(NC(C)=O)nc4ccccc43)nc12 | –
< 5.30 | – | COc1cccc2c(NCCc3ccccc3)nc(-n3c(N)nc4ccccc43)nc12 | –
< 5.30 | – | COc1cccc2c(Cc3ccccc3)nc(-n3c(N)nc4ccccc43)nc12 | –
< 5.30 | – | COc1cccc2c(NCc3ccccc3)nc(Cn3c(C)nc4ccccc43)nc12 | –
6.63 | – | CNc1nc2ccccc2n1-c1nc(NCc2ccccc2)c2cccc(OC)c2n1 | –
< 5.30 | – | COc1cccc2c(NC(C)c3ccccc3)nc(-n3c(N)nc4ccccc43)nc12 (configuration not stated) | –
6.09 | 5.49 | COc1cccc2c(NCc3ccccc3)nc(-n3c(N)nc4ccccc43)nc12 | IC50 [3]: Not Active; half-life [5]: 7 min; solubility [6]: < 1 µg/mL; pIC50 [7]: 5.21; pIC50 [8]: 5.18
< 5.30 | – | COc1cccc2c(NCc3ccccc3)nc(-n3cnc4ccccc43)nc12 | –
5.97 | – | COc1cccc2c(NCc3ccccc3)nc(-n3c(=O)[nH]c4ccccc43)nc12 | –
< 5.30 | – | CCc1nc2ccccc2n1-c1nc(NCc2ccccc2)c2cccc(OC)c2n1 | –
6.64 | – | COc1cccc2c(NCc3ccccc3)nc(-n3c(N(C)C)nc4ccccc43)nc12 | –
< 5.30 | – | COc1cccc2c(CCc3ccccc3)nc(-n3c(N)nc4ccccc43)nc12 | –
6.04 | – | COCCOc1cccc2c(NCc3ccccc3)nc(-n3c(N)nc4ccccc43)nc12 | –
< 5.30 | – | COc1cccc2c(N(C)Cc3ccccc3)nc(-n3c(N)nc4ccccc43)nc12 | –
6.84 | – | COc1cccc2c(NCc3ccccc3)nc(-n3c(OC)nc4ccccc43)nc12 | –
< 5.30 | – | COc1cccc2c(OCc3ccccc3)nc(-n3c(N)nc4ccccc43)nc12 | –
6.52 | – | COCCOc1cccc2c(NCc3ccccc3)nc(-n3c(C)nc4ccccc43)nc12 | –
6.82 | – | COc1cccc2c(NCc3ccccc3)nc(-n3c(C)nc4ccccc43)nc12 | –
6.43 | – | COCCOc1cccc2c(NCc3ccccc3)nc(-n3c(OC)nc4ccccc43)nc12 | –
< 5.30 | – | COc1cccc2c(NC(=O)c3ccccc3)nc(-n3c(N)nc4ccccc43)nc12 | –
